Measurements taken from PubChem BioAssay (NCI).
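GI50: concentration for 50% inhibition of growth. The concentration for full growth arrest is given as TGI.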

How the values were obtained:
Test in all cases: DTP human tumour cell line panel, 384-well format
BT-549 breast = system: BT-549 breast
HL-60(TB) leukemia = system: HL-60(TB) leukemia
IGROV1 ovarian = system: IGROV1 ovarian
KM12 colon = system: KM12 colon
MDA-MB-468 breast = system: MDA-MB-468 breast
NCI-H23 lung = system: NCI-H23 lung
NCI/ADR-RES ovarian = system: NCI/ADR-RES ovarian
OVCAR-4 ovarian = system: OVCAR-4 ovarian
RXF 393 renal = system: RXF 393 renal
SK-MEL-28 melanoma = system: SK-MEL-28 melanoma
SR leukemia = system: SR leukemia
T-47D breast = system: T-47D breast
UACC-257 melanoma = system: UACC-257 melanoma

COc1cc2nc(C)nc(N[C@H](C)c3cc(N)cc(C(F)(F)F)c3)c2cc1O[C@H]1CCOC1
GI50 (BT-549 breast): 8.77 µM | TGI (BT-549 breast): 21.2 µM | GI50 (HL-60(TB) leukemia): 3.91 µM | TGI (HL-60(TB) leukemia): 14.4 µM | GI50 (IGROV1 ovarian): 8.69 µM | TGI (IGROV1 ovarian): 21.5 µM | GI50 (KM12 colon): 0.98 µM | TGI (KM12 colon): 17.1 µM | GI50 (MDA-MB-468 breast): 1.35 µM | TGI (MDA-MB-468 breast): 11.3 µM | GI50 (NCI-H23 lung): 3.42 µM | TGI (NCI-H23 lung): 17.7 µM | GI50 (NCI/ADR-RES ovarian): 12.5 µM | TGI (NCI/ADR-RES ovarian): 25.4 µM | GI50 (OVCAR-4 ovarian): 8.7 µM | TGI (OVCAR-4 ovarian): 21.4 µM | GI50 (RXF 393 renal): 2.43 µM | TGI (RXF 393 renal): 12.1 µM | GI50 (SK-MEL-28 melanoma): 12.6 µM | TGI (SK-MEL-28 melanoma): 25.2 µM | GI50 (SR leukemia): 1.54 µM | TGI (SR leukemia): 8.64 µM | GI50 (T-47D breast): 10.2 µM | TGI (T-47D breast): 21.9 µM | GI50 (UACC-257 melanoma): 4.86 µM | TGI (UACC-257 melanoma): 16.6 µM
